Experiment [1] deals with Candida albicans. Description: Compound was tested for inhibitory activity against 1,3-beta-glucan synthase from Candida albicans 6406. It is filed as functional.
Experiment [2] deals with Candida albicans. Description: In vivo effective dose for antifungal activity on sc administration in female mice infected with 2.5*10e6 cells/mL of Candida albicans at day 14. It is filed as functional.
Experiment [3] is filed under the species Homo sapiens. Description: Lytic concentration for hemolytic activity in human by akaishi method. Type of experiment: functional.
Experiment [4] concerns Cryptococcus neoformans. Description: In vitro antifungal activity against Cryptococcus neoformans YC203 at 30 degrees C for 48 hr. It is filed as functional, organism-based.
The species entered for experiment [5] is Mus musculus. Description: Minimum lytic concentration that lysed red blood cells in mouse. Type of experiment: functional.
Experiment [6] relates to Pneumocystis carinii. Description: Evaluated for inhibitory growth of Pneumocystis carinii cysts in lungs administered at the dose of 10 mg/kg expressed as number of cysts/lungs for 3 weeks. It is filed as functional.
The test system of experiment [7] is Candida albicans. Description: In vitro antifungal activity against Candida albicans FP578 at 37 degrees C for 22h. Type of experiment: functional, organism-based.
The subject of experiment [8] is Candida tropicalis. Description: In vitro antifungal activity against Candida tropicalis YC118 at 37 degrees C for 22h. Type of experiment: functional, organism-based.
In experiment [9] the test system is Pichia kudriavzevii. Description: In vitro antifungal activity against Candida krusei YC109 at 37 degrees C for 22h. Type of experiment: functional, organism-based.
For experiment [10], the system named is Candida albicans. Description: In vitro antifungal activity against Candida albicans FP629 at 37 degrees C for 22h. Type of experiment: functional, organism-based.
Experiment [11] relates to Aspergillus niger. Description: In vitro antifungal activity against Aspergillus niger ATCC 9642 at 37 degrees C for 22h. The following applies: ATCC 9642, 22 h. Type of experiment: functional, organism-based.
Experiment [12] relates to Candida albicans. Description: In vitro antifungal activity against Candida albicans FP633 at 37 degrees C for 22h. It is filed as functional, organism-based.
The subject of experiment [13] is Pneumocystis carinii. Description: Evaluated for inhibitory growth of Pneumocystis carinii cysts in lungs administered at the dose of 10 mg/kg expressed as number of cysts/lungs for 8 weeks. Type of experiment: functional.
Experiment [14] deals with Candida albicans. Description: In vitro antifungal activity against Candida albicans FP582 at 37 degrees C for 22h. It is filed as functional, organism-based.
The species named for experiment [15] is Homo sapiens. Description: Minimum lytic concentration that lysed red blood cells in human. It is filed as functional.
Experiment [16] relates to Candida albicans. Description: In vivo effective dose for antifungal activity on sc administration in female mice infected with 2.5*10e6 cells/mL of Candida albicans at day 10. Type of experiment: functional.
The test system of experiment [17] is Cyberlindnera jadinii. Description: In vitro antifungal activity against Candida utilis YC123 at 37 degrees C for 22h. It is filed as functional, organism-based. The following applies: Williopsis jadinii.
In experiment [18] the test system is Aspergillus fumigatus. Description: In vitro antifungal activity against Aspergillus fumigatus FD050 at 37 degrees C for 22h. It is filed as functional, organism-based.
Experiment [19] relates to Candida albicans. Description: In vitro inhibitory concentration required for antifungal activity against Candida albicans FP578 at 37 degrees C for 22h. It is filed as functional, organism-based.
For experiment [20], the system named is Cryptococcus neoformans. Description: In vitro inhibitory concentration degrees C for 48 hr. It is filed as functional, organism-based.

The results in this text go back to ChEMBL document CHEMBL1134173, “FR131535, a novel water-soluble echinocandin-like lipopeptide: synthesis and biological properties” (Bioorg Med Chem Lett, 2001).

By IC50 is commonly meant the point on the concentration scale where inhibition reaches its midpoint. Read a high IC50 as lower potency. One may read the ED50 as the dose at which the effect has come halfway, by size or by number of responders.

Structures are written as SMILES. Values after ≈ are worked out from the molar mass of the structure shown. Numbered stars: 1 amine (or outer) side, 2 acyl side, 3 side chain; on linkers, the order of the positions; unused ones are H or OH. Bridge positions count the residues as written; N and C are the ends. Square brackets hold non-standard residues; d marks the D form. Peptide text beside a SMILES is read from it. * marks the point of attachment. hTyr(3S-OH,4S-OH,3'-OSO3H) = N[C@H](C(=O)O)[C@H](O)[C@@H](O)c1ccc(O)c(OS(=O)(=O)O)c1; Orn(4R-OH,5R-OH) = O=C([C@H](C[C@@H](O)[C@@H](O)N[*:3])N[*:1])[*:2]; Orn(4R-OH,5S-OH) = O=C([C@H](C[C@@H](O)[C@H](O)N[*:3])N[*:1])[*:2]; hTyr(3S-OH,4S-OH) = N[C@H](C(=O)O)[C@H](O)[C@@H](O)c1ccc(O)cc1; Pro(3S-OH,4S-Me) = C[C@H]1CN[C@H](C(=O)O)[C@H]1O; Benzoyl(4-octyloxy) = CCCCCCCCOc1ccc(C(=O)*)cc1; Gln(3R-OH) = NC(=O)C[C@@H](O)[C@H](N)C(=O)O; Palmitoyl = CCCCCCCCCCCCCCCC(=O)*; Hyp = O=C(O)[C@@H]1C[C@@H](O)CN1

For the compound `C[C@@H]([C@H](N)C(=O)N[C@H](C(=O)O)[C@H]1O[C@@H](n2cc(C=O)nc2O)[C@H](O)[C@@H]1O)[C@H](O)c1ccc(O)cn1`, the IC50 in experiment [1] was > 100 µg/mL.

In the case of `CCCCCCCCCCCCCCCC(=O)N[C@H]1C[C@@H](O)[C@H](O)NC(=O)[C@@H]2[C@@H](O)[C@@H](C)CN2C(=O)[C@H]([C@H](O)CC(N)=O)NC(=O)[C@H]([C@H](O)[C@@H](O)c2ccc(O)c(OS(=O)(=O)O)c2)NC(=O)[C@@H]2C[C@@H](O)CN2C(=O)[C@H]([C@@H](C)O)NC1=O` (Palmitoyl-[Orn(4R-OH,5S-OH)]T[Hyp][hTyr(3S-OH,4S-OH,3'-OSO3H)][Gln(3R-OH)][Pro(3S-OH,4S-Me)]; lactam 1-C), the values for the ED50 in experiment [2] and in [16] were 2.9 mg/kg and 1.1 mg/kg, respectively. In experiment [3], the LC30 was determined as 160 µg/mL (≈ 136 µM). For the same compound, the concentration for half-maximal inhibition (IC50) in experiment [4] was > 2.5 µg/mL; in [1], 0.7 µg/mL (≈ 0.596 µM); in experiment [7], 0.025 µg/mL (≈ 0.0213 µM); in experiment [8], 0.09 µg/mL (≈ 0.0766 µM); in experiment [9] it was 0.14 µg/mL (≈ 0.119 µM); in experiment [10], 0.018 µg/mL (≈ 0.0153 µM). Besides, the IC50 in [11] was found to be 0.004 µg/mL (≈ 0.0034 µM); in experiment [12] it was 0.018 µg/mL (≈ 0.0153 µM); in [14], 0.004 µg/mL (≈ 0.0034 µM); in experiment [17], 0.03 µg/mL (≈ 0.0255 µM); in experiment [18], 1.3 µg/mL (≈ 1.11 µM). The MLC in experiment [5] and in experiment [15] was 31 µg/mL (≈ 26.4 µM) throughout. Moreover, the Activity in [6] is <1.8; in [13], 2.

On to `C[C@@H]1[C@H](O)[C@@H](C)/C=C/C=C/C=C/C=C/C=C/C=C/C=C/[C@H](O[C@@H]2O[C@H](C)[C@@H](O)[C@H](N)[C@@H]2O)C[C@@H]2O[C@](O)(C[C@@H](O)C[C@@H](O)[C@H](O)CC[C@@H](O)C[C@@H](O)CC(=O)O[C@H]1C)C[C@H](O)[C@H]2C(=O)O` [AMPHOTERICIN B], for which the half-maximal inhibitory concentration (IC50) worked out at 0.39 µg/mL (≈ 0.422 µM) in experiment [19]; 0.39 µg/mL (≈ 0.422 µM) in experiment [4]; 0.62 µg/mL (≈ 0.671 µM) in experiment [8]; 1.6 µg/mL (≈ 1.73 µM) in [9]; 0.39 µg/mL (≈ 0.422 µM) in [10]; 1.9 µg/mL (≈ 2.06 µM) in experiment [11]. Further, the IC50 in [12] was found to be 0.39 µg/mL (≈ 0.422 µM); in experiment [14] it was 0.55 µg/mL (≈ 0.595 µM); in experiment [17], 0.47 µg/mL (≈ 0.509 µM); in [18], 0.62 µg/mL (≈ 0.671 µM).

Regarding `CCCCCCCCOc1ccc(C(=O)N[C@H]2C[C@@H](O)[C@@H](O)NC(=O)[C@@H]3[C@@H](O)[C@@H](C)CN3C(=O)[C@H]([C@@H](C)O)NC(=O)[C@H]([C@H](O)[C@@H](O)c3ccc(O)cc3)NC(=O)[C@@H]3C[C@@H](O)CN3C(=O)[C@H]([C@@H](C)O)NC2=O)cc1` [CILOFUNGIN] ({Benzoyl(4-octyloxy)}-[Orn(4R-OH,5R-OH)]T[Hyp][hTyr(3S-OH,4S-OH)]T[Pro(3S-OH,4S-Me)]; lactam 1-C), the ED50 in experiment [2] was > 10 mg/kg; in experiment [16] it was 5 mg/kg. In addition, the 50% inhibitory concentration (IC50) turned out to be 0.36 µg/mL (≈ 0.349 µM) in experiment [19]; 0.94 µg/mL (≈ 0.912 µM) in experiment [8]; 3.2 µg/mL (≈ 3.11 µM) in experiment [9]; 0.47 µg/mL (≈ 0.456 µM) in experiment [10]; 0.08 µg/mL (≈ 0.0777 µM) in experiment [11]; 0.39 µg/mL (≈ 0.379 µM) in experiment [12]. The half-inhibitory concentration (IC50) in [14] is 0.24 µg/mL (≈ 0.233 µM); in experiment [20], > 2.5 µg/mL; in [17] it was 0.94 µg/mL (≈ 0.912 µM); in experiment [18], > 0.003 µg/mL. Moreover, the LC30 in [3] was > 500 µg/mL. Moreover, the results for the MLC in experiment [5] and in experiment [15] were > 500 µg/mL and > 1000 µg/mL, respectively.

As for `COc1cc(Cc2cnc(N)nc2N)cc(OC)c1OC.Cc1cc(NS(=O)(=O)c2ccc(N)cc2)no1` [CO-TRIMOXAZOLE], the Activity is listed as <1.8 in experiment [6] and 4.1 in [13].

In the case of `OC(Cn1cncn1)(Cn1cncn1)c1ccc(F)cc1F` [FLUCONAZOLE], the ED50 is 2.4 mg/kg in experiment [2] and < 1 mg/kg in [16].

Take `CCCCCCCCOc1ccc(C(=O)N[C@H]2C[C@@H](O)[C@H](O)NC(=O)[C@@H]3[C@@H](O)[C@@H](C)CN3C(=O)[C@H]([C@H](O)CC(N)=O)NC(=O)[C@H]([C@H](O)[C@@H](O)c3ccc(O)c(OS(=O)(=O)[O-])c3)NC(=O)[C@@H]3C[C@@H](O)CN3C(=O)[C@H]([C@@H](C)O)NC2=O)cc1.[Na+]` [FR-131535] ({Benzoyl(4-octyloxy)}-[Orn(4R-OH,5S-OH)]T[Hyp][hTyr(3S-OH,4S-OH,3'-OSO3H)][Gln(3R-OH)][Pro(3S-OH,4S-Me)]; lactam 1-C): the 50% effective dose (ED50) in experiment [2] stood at 3.5 mg/kg; in experiment [16], 3 mg/kg. Besides, the LC30 in experiment [3] was > 500 µg/mL. The half-maximal inhibitory concentration (IC50) in experiment [4] was > 2.5 µg/mL; in experiment [1], 2.8 µg/mL; in experiment [7] it was 0.31 µg/mL; in experiment [8] it was 0.47 µg/mL; in [9], 1.9 µg/mL; in experiment [10] it was 0.47 µg/mL. The IC50 in experiment [11] was 0.16 µg/mL; in experiment [12], 0.47 µg/mL; in experiment [14], 0.39 µg/mL; in experiment [17], 1.35 µg/mL; in experiment [18], < 0.003 µg/mL. Moreover, the results for the MLC in [5] and in [15] were > 500 µg/mL and > 1000 µg/mL, respectively. For the same compound, the Activity is <1.8 in experiment [6] and 2.3 in experiment [13].
